From patent publication US9279004B2, “Synthetic PnTx(19) peptide, pharmaceutical compositions and use” (priority 2012, dated 2016)

What was measured:
[1] = test system: strips of cavernous body isolated from mice; assay: Relaxation of cavernous-body strips pre-contracted with phenylephrine; settings: acetylcholine 10^-4 M (control); pre-contracted by phenylephrine 10^-5 M
Description: FIG. 5—Effects of the toxin PnTx2-6 and of the peptide PnTx(19) (1×10^-6M) on the relaxation of strips of cavernous goodies of mice. The strips were pre-contracted with phenylefrine (10^-5 M) and relaxed with acetylcholine (10^-4M)-control, PnTx2-6 (5×10^-8M) and PnTx(19) (x10-6 M) (n=3).
Mice were sacrificed by decapitation, their penis were removed surgically and placed on a Petri dish containing Krebs Ringer bicarbonate—(NaCl, 118.1; KCl, 4.7; KH2PO4, 1.0; MgSo4, 1.0: NaHCO3, 25.0; CaCl2, 2.55; and Glucose, 11.1 mM), bubbled with a mixture of 95% O2 and 5% CO2. The gland, the spongy body and the urethra were removed and the cavernous bodies were desiccated with removal of the tunica albuginea and separated by cutting the fibrous septum between them. The strips of cavernous bodies measuring about 1×1×7 mm were mounted separately in a chamber, one end thereof being secured to an electrode and the other linked to a transducer. […]
The tissue was stretched by a passive force of 2.0 mN and stabilized for 60 minutes, the solution being replaced every 15 minutes. The changes in isometric force were recorded by using an isometric force transducer (World Precision Instruments, Inc., Sarasota, Fla., USA), connected to an amplifier (TBM-4 model; World Precision Instruments, Inc., USA), using software WinDaq Data Acquisition (Dada® Instruments, USA). […]

[2] = test system: Swiss mice; assay: Immunogenicity after subcutaneous immunization (indirect ELISA antibody titer); format: in vivo; settings: 10 μg subcutaneous, during the assays
Procedure: FIG. 8—Analysis of the antibody titer. A) Control: adjuvant (aluminum hydroxide). B) antibody titer after administration of the peptide PnTx-19 (10 μG) in different days.
Swiss, male, 20-23 gram mice were divided into 2 groups (Control—Adjuvant: aluminum hydroxide—FIG. 8 A and PnTx-19-10 μG—FIG. 8B), each group containing 4 animals. The mice were immunized by subcutaneous route. 21, 35 and 49 days from the first inoculation, the mice received a reinforcement of the above-mentioned preparations. To verify the presence of antibodies against the PnTx-19, the serum collected from the mouse tails was evaluated 15, 30, 40 and 60 days after the first inoculation through the indirect immunoenzymatic assay (ELISA), as described for other preparations (DEL PINO, F. A. B., BRANDELLI, A., GONZALES, J. C., HENRIQUES, J. A. P., DEWES, H., Effect of antibodies against β-N-acetylglucosaminidase on reproductive efficiency of the bovine tick Boophilus microplus. Vet. Parasitol. 79, 247-255, 1998).

[3] = test system: isolated perfused heart; assay: Isolated perfused heart: ventricular pressure, heart rate and ±dP/dt; set-up: species or system rats; settings: peptide 37.8 nmol/L-37.8 μmol/L
Procedure: FIG. 7—Response dose curve of the peptide PnTx-19 and of the Toxin PnTx2-6 in the right (A) and (B) ventricular pressure, derived±dP/dt (C and D) and cardiac rate (E) of rats.
The rats were kept under a controlled cycle of 12 h light/darkness at a stable temperature with free access to water and food. They were decapitated 10 to 15 minutes after intraperitoneal injection of Heparin (200 IU). The thorax was opened, the heart was carefully desiccated and perfused through an aortic tip with Krebs-Ringer solution (KRS) containing (by mmol/L) NaCl (118.4), KCl (4.7), KH2PO4 (1.2), MgSO4.7H2O (1.2), CaCl2.2H2O (1.25), glucose (11.7) and NaHCO3 (26.5). The perfusion flow was kept constant (10 mL/min) at 37° C. and under constant oxygenation (5% CO2 and 95% O2). A balloon connected to a pressure transducer was inserted into the right ventricle, and one monitored the ventricular pressure, heart rate and derivative±dP/dt (FIG. 7). The balloon volume was adjusted to a final diastolic pressure of about 10 mm Hg. After a period for reaching the balance (30 to 40 minutes), 100 μmol/L carrier were injected (control), toxin at concentrations of 37.8 nmol/L-3.78 μmol/L or a peptide at concentrations of 37.8 nmol/L-37.8 μmol/L in perfusion buffer.
The results are the average±SEM. […]

[4] = Water solubility of the peptide; format: physicochemical; settings: acetylated and amidated peptide
Description: With a view to increasing the solubility of the peptide, in the present technology one has synthetized the PnTx(19) with modifications in the N-terminal portion (acetylation) and C-terminal portion (amidation).

[5] = test system: channels for sodium Nav1.5, present in cardiomyocytes; assay: Patch-clamp of cardiac sodium current; format: cell-based; settings: PnTx-19 1 μM
Description: FIG. 6—Effects of the peptide PnTx-19 and of the toxin PnTx2-6 in the cardiac sodium current. A—Effect of the toxin PnTx2-6 on the peak of sodium current (black arrow) and in the inactivation current (gray arrow). C—Effect of the peptide PnTx-19 on the peak of the sodium current and in the inactivation current. D—Course of time of peak in the sodium current, during the perfusion of PnTx-19 and PnTx-26. Each black circle indicates the amplitude of the Ina, measured every 1 second in a membrane potential of −20 mV. The gray bars indicate the moment when the cell was exposed to PnTx2-6 or PnTX-19 (peptide). The bar graphs summarize the effects of PnTx2-6 500 nM (n=7) and of the peptide PnTx-19 (peptide) 1 μM (n=12) in the decay constant (E) and reduction of the sodium current (F). Bars indicate average±SEM, *p<0.05 with respect to the controls.
Patch-clamp experiments were carried out with a view to analyze the effects of the toxin PnTx2-6 and of the peptide PnTx-19 on channels for sodium Nav1.5, present in cardiomyocytes.

[6] = test system: cerebrocortical synaptosomes; assay: Synaptosomal viability (lactate dehydrogenase activity, % lysis vs Triton X-100); format: cell-based, rat; settings: for lysis (LDH activity relative to Triton X-100 = 100% of lysis): 60 min incubation
Procedure: FIG. 3—Synaptosomal viability—verified by the activity of the enzyme lactate dehydrogenase, which oxidizes the NADH to NAD+. The latter determines a reduction in the reading (339 nm), which enables one to qualify the enzymatic activity. The reaction mixture was incubated for 60 min with PnTx(19) (10^-5 M; 3×10^-5 M; 10^-6 M; 3×10^-6 M) and the activity percentage evaluated with respect to the lysis triggered by the Triton X-100, considered=100% of lysis. The activity of this enzyme is proportional to the breakage of the synaptosomes, considering that this is an enzyme of the intracellular compartment.
Adult rats (240-300 g) were decapitated the brains were rapidly removed, immersed into homogenization solution (sucrose 0.32 M, EDTA 1 Mm and Dithiotreitol (DTT) 0.25 mM, pH=7.4) and kept in ice, then they were used in preparing the synaptosomes, as previously described by Dunkley et al 1988 (DUNKLEY, P. R.; Brain Research, 441, 59-71, 1988).
As control of the viability of the synaptosomes and also for verifying a possible lytic activity of the peptide, one carried out tests for activity of the enzyme lactate dehydrogenase, according to Kubowistz, Ott, 1943 (KUBOWISTZ, F., OTT, C. Biochem Z. 319, 94-117, 1943).

[7] = test system: cerebrocortical synaptosomes of rats; assay: Release of L-glutamate from cerebrocortical synaptosomes; format: cell-based, rat; settings: 3×10^-5 M, compared with control (untreated synaptosomes), only active concentration of 10-6 to 3×10^-5 M
Procedure: FIG. 4—Effect of different concentrations of the PnTx(19) in releasing L-glutamate—ELISA Plate containing 300 μl/well of the synaptosome mixture (10% final volume) and NADP+(final concentration of 1 mM) in KRH with calcium (2 mM), kept at 37° C. under constant stirring was monitored. One carried out the reading of the fluorescence on the spectrofluorimeter for 2460 seconds. The enzyme GDH (35 units for the final volume of 300 μl) was added to the wells at 60 seconds; at 660 seconds, in different wells, one added different concentrations of PnTx(19) (“10^-5M, 3×10^-5 M, 10^-6 M and 3×10^-6 M”) and the KCI (33 mM). As negative controls, one used wells containing untreated synaptosomes […]. […]
The release of L-glutamate was analyzed according to the proposal of Nicholls et al. 1987 (NICHOLLS, D. et al. J. Neurochem. 49, 5057, 1987). In order to evaluate whether the peptide was capable of inducing release of L-glutamate in cerebrocortical synoptosomes of rats, just as the native toxin, one analyzed the effect thereof at the following concentrations: 10^-5M, 3×10^-5M, 10^-6M, and 2×10^-6 M, […].

Molecule	relaxation of cavernous-body strips [1]	hypersensitivity or death reactions of the animals [2]	effect on ventricular pressure, ±dP/dt and heart rate [3]	solubility in water [4]	effect on density of the sodium current [5]	effect on peak of sodium current and inactivation current [5]	lysis (LDH activity relative to Triton X-100 = 100% of lysis) ([6]; 3×10^-5 M)	lysis (LDH activity relative to Triton X-100 = 100% of lysis) ([6]; 3×10^-6 M)	lysis (LDH activity relative to Triton X-100 = 100% of lysis) ([6]; 10^-5 M)	effect on synaptosomal viability and/or exocytotic machinery ([6]; 10^-6 M to 3×10^-5 M, compared with control (absence of the peptide))	lysis (LDH activity relative to Triton X-100 = 100% of lysis) ([6]; 10^-6 M)	release of L-glutamate [7]	release of L-glutamate ([7]; listed as PnTx19)
CC(=O)OCC[N+](C)(C)C [acetylcholine]	81.6%												
Ac-GERRQYFWIAWYKLANSKK-NH2 [PnTx(19)]		No hypersensitivity or death reactions	did not alter any of these parameters	water-soluble	this phenomenon was not observed	These effects were not observed	2%	9%	3.4%	does not affect the synaptosomal viability and/or exocytotic machinery	6%	induced an increase in the release of glutamate	capable of inducing significant release of L-glutamate
